According to patent US20260151516A1, “NEW PET TRACER FOR IMAGING OF THE FUNCTIONAL HEPATIC RESERVE” (Medizinische Universität Innsbruck, priority 2022, published 2026):

Columns and labels:
[1] = Partition coefficient (log D), n-Octanol/PBS; format: physicochemical
Procedure: The vials were vortexed for 5 min at 1,500 rpm and then centrifuged for 5 min at 20,000 rcf (Eppendorf Centrifuge 5424).

[2] = Ligand stability in human blood serum (radio-HPLC); format: in vitro ADME; details: 37° C., 120 min
Procedure: Ligand stability in human blood serum (n=2) and PBS (n=1) was determined for different time points (2 min, 30 min, 60 min, 120 min). Therefore, approx. 5 MBq of radioligand was added to 1 mL of fresh human serum or PBS and incubated at 37° C. At each given time point 100 μL of the mixture were transferred to a 1.5 mL Eppendorf tube containing 100 μL of acetonitrile. The vial was vortexed and centrifuged for 2 min at 14,000 rpm before 100 μL of the supernatant were diluted with 200 μL of water and injected into analytical radio-HPLC. The PBS solution was directly injected into the radio-HPLC. Ligand stability was determined by integrating the areas of the signals in the radio chromatogram in relation to the signal of the intact ligand.

[3] = Biodistribution studies incl. blocking experiments; format: in vivo; details: healthy BALB/c mice
Procedure: For biodistribution studies 6 week old female BALB/c mice (n=3) were injected with 0.1 nmol (100 μL, approx. 1 MBq) of labelled compound via the lateral tail vein and sacrificed after 10, 30, or 60 min by cervical dislocation. The mice were dissected, blood and organs (spleen, pancreas, stomach, intestine, liver, kidney, heart, lung, muscle, and bone) were weighed, and their activity measured in a γ-counter. For blocking experiments, mice were co-injected with 100 μL of a 277 mM Galactose/PBS solution. In case of [^68Ga]Ga-TRAP-GalNAc a 277 mM N-Acetylgalactose solution was used.

[4] = tested on: human serum; assay: Protein binding in fresh human serum (Sephadex MicroSpin G-50 columns); format: in vitro ADME; details: 37° C., 30 min
Procedure: Protein binding was determined for different time points (2 min, 30 min, 60 min, 120 min) in triplicates using Sephadex MicroSpin G-50 columns (GE-Healthcare, Chicago, Illinois, USA). The columns were spun initially at 20,000 rcf for 1 min to remove the storage buffer. Then approx. 5 MBq of radioligand was added to 1 mL of fresh human serum and incubated at 37° C. At each given timepoint 25 μL of the mixture was loaded on to the column, which was then spun at 20,000 rcf for 1 min. The activity content on the column (free radioligand) and in the filtrate (protein bound fraction) was quantified in a γ-counter.

[5] = 30 min p.i., blocking with 277 mM N-Acetylgalactose

Structure (SMILES): CC(=O)N[C@H]1[C@H](OCCOCCOCCn2cc(CNC(=O)CCP(=O)([O-])CN3CCN(CP(=O)([O-])CCC(=O)NCc4cn(CCOCCOCCO[C@@H]5O[C@H](CO)[C@H](O)[C@H](O)[C@H]5NC(C)=O)nn4)CCN(CP(=O)([O-])CCC(=O)NCc4cn(CCOCCOCCO[C@@H]5O[C@H](CO)[C@H](O)[C@H](O)[C@H]5NC(C)=O)nn4)CC3)nn2)O[C@H](CO)[C@H](O)[C@@H]1O.[68Ga+3] [[^68Ga]Ga-TRAP-GalNAc]
- logD [1]: −4.2±0.08
- Serum stability (% of intact ligand) [2]: high serum stability
- Serum stability (% of intact ligand) ([2]; listed as [^68Ga]Ga-TRAP-GalNAC): 99.7 ± 0.1%
- Liver uptake compared with [^99mTc]Tc-GSA [3]: comparable
- Biodistribution Blood ([3]; 10 min p.i.): 0.64 ± 0.04 % ID/g
- Biodistribution Femur ([3]; 10 min p.i.): 0.27 ± 0.04 % ID/g
- Biodistribution Heart ([3]; 10 min p.i.): 0.69 ± 0.12 % ID/g
- Biodistribution Intestine ([3]; 10 min p.i.): 0.63 ± 0.06 % ID/g
- Biodistribution Kidneys ([3]; 10 min p.i.): 1.43 ± 0.10 % ID/g
- Biodistribution Liver ([3]; 10 min p.i.): 69.1 ± 4.18 % ID/g
- Biodistribution Lung ([3]; 10 min p.i.): 0.92 ± 0.11 % ID/g
- Biodistribution Muscle ([3]; 10 min p.i.): 0.55 ± 0.03 % ID/g
- Biodistribution Pancreas ([3]; 10 min p.i.): 0.92 ± 0.17 % ID/g
- Biodistribution Spleen ([3]; 10 min p.i.): 0.24 ± 0.05 % ID/g
- Biodistribution Stomach ([3]; 10 min p.i.): 0.86 ± 0.15 % ID/g
- Biodistribution Blood ([3]; 30 min p.i.): 0.57 ± 0.09 % ID/g
- Biodistribution Femur ([3]; 30 min p.i.): 0.47 ± 0.12 % ID/g
- Biodistribution Heart ([3]; 30 min p.i.): 0.73 ± 0.02 % ID/g
- Biodistribution Intestine ([3]; 30 min p.i.): 4.16 ± 0.35 % ID/g
- Biodistribution Kidneys ([3]; 30 min p.i.): 1.68 ± 0.30 % ID/g
- Biodistribution Liver ([3]; 30 min p.i.): 63.88 ± 2.23 % ID/g
- Biodistribution Lung ([3]; 30 min p.i.): 1.02 ± 0.06 % ID/g
- Biodistribution Muscle ([3]; 30 min p.i.): 0.74 ± 0.08 % ID/g
- Biodistribution Pancreas ([3]; 30 min p.i.): 1.50 ± 0.49 % ID/g
- Biodistribution Spleen ([3]; 30 min p.i.): 0.20 ± 0.02 % ID/g
- Biodistribution Stomach ([3]; 30 min p.i.): 1.60 ± 0.56 % ID/g
- Biodistribution Blood [3, 5]: 0.80 ± 0.04 % ID/g
- Biodistribution Femur [3, 5]: 0.32 ± 0.12 % ID/g
- Biodistribution Heart [3, 5]: 0.31 ± 0.02 % ID/g
- Biodistribution Intestine [3, 5]: 0.71 ± 0.06 % ID/g
- Biodistribution Kidneys [3, 5]: 2.86 ± 0.21 % ID/g
- Biodistribution Liver [3, 5]: 10.98 ± 0.44 % ID/g
- Biodistribution Lung [3, 5]: 0.73 ± 0.02 % ID/g
- Biodistribution Muscle [3, 5]: 0.28 ± 0.05 % ID/g
- Biodistribution Pancreas [3, 5]: 0.39 ± 0.04 % ID/g
- Biodistribution Spleen [3, 5]: 0.24 ± 0.01 % ID/g
- Biodistribution Stomach [3, 5]: 0.53 ± 0.06 % ID/g
- Biodistribution Blood ([3]; 60 min p.i.): 0.23 ± 0.02 % ID/g
- Biodistribution Femur ([3]; 60 min p.i.): 0.49 ± 0.11 % ID/g
- Biodistribution Heart ([3]; 60 min p.i.): 0.82 ± 0.27 % ID/g
- Biodistribution Intestine ([3]; 60 min p.i.): 4.53 ± 0.35 % ID/g
- Biodistribution Kidneys ([3]; 60 min p.i.): 0.79 ± 0.07 % ID/g
- Biodistribution Liver ([3]; 60 min p.i.): 54.20 ± 7.95 % ID/g
- Biodistribution Lung ([3]; 60 min p.i.): 0.71 ± 0.10 % ID/g
- Biodistribution Muscle ([3]; 60 min p.i.): 0.57 ± 0.01 % ID/g
- Biodistribution Pancreas ([3]; 60 min p.i.): 0.76 ± 0.11 % ID/g
- Biodistribution Spleen ([3]; 60 min p.i.): 0.17 ± 0.05 % ID/g
- Biodistribution Stomach ([3]; 60 min p.i.): 0.54 ± 0.02 % ID/g
- Protein binding (%) [4]: 24.3 ± 5.2%
